Assay in all cases: kinome screen (33PanQinase)
Holding throughout (assay type): biochemical

One experiment has as its target T1, BUB1B (Homo sapiens, UniProt O60566).
T1 construct: purchased Reaction Biology Europe GmbH (formerly ProQinase)
The procedure: (§1) The Kinome Screening was performed by Reaction Biology Europe GmbH (http://reactionbiology.com; Freiburg i. Br., Germany).

In the next experiment the target is T2, MKK7 (Homo sapiens, UniProt O14733).
T2 construct: purchased Reaction Biology Europe GmbH (formerly ProQinase)
T2 sequence (O14733 1-419): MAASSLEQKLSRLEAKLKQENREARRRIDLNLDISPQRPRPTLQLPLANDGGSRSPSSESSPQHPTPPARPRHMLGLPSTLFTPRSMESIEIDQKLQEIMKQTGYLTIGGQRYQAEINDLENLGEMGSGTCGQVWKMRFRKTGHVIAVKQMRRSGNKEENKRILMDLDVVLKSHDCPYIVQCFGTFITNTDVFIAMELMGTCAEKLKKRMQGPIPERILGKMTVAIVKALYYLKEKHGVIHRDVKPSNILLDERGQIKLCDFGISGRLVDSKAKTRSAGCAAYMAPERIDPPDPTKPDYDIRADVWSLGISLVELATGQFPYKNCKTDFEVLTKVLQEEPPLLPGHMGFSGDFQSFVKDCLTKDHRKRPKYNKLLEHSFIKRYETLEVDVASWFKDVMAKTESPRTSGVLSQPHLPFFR
The protocol:
as §1

In a further experiment the target is T3, SGK2 (Homo sapiens, UniProt Q9HBY8).
T3 construct: purchased Reaction Biology Europe GmbH (formerly ProQinase)
T3 sequence (Q9HBY8 1-367): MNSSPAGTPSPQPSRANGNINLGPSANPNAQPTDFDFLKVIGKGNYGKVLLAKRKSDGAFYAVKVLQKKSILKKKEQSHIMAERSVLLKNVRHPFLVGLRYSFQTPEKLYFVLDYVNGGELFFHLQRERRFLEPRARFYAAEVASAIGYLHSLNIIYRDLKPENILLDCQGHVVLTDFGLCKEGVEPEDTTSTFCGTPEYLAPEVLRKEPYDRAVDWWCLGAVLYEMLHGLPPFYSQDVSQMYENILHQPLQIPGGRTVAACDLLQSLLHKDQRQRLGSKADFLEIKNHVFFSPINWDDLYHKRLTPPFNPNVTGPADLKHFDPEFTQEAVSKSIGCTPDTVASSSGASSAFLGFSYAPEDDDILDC
The protocol: as §1

In a further experiment the target is T4, CDK6/CycD3 (Homo sapiens, UniProt Q00534).
T4 construct: purchased Reaction Biology Europe GmbH (formerly ProQinase)
T4 sequence (Q00534 whole entry): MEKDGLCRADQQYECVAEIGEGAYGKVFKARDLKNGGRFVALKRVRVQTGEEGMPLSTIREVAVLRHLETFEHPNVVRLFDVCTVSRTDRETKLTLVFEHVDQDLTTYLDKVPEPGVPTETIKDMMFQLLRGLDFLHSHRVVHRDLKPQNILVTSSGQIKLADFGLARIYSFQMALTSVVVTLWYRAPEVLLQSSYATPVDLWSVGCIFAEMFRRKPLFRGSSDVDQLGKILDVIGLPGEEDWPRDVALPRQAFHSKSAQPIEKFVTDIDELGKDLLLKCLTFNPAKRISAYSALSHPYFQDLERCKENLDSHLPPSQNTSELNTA
T4 sequence (P30281 whole entry partner): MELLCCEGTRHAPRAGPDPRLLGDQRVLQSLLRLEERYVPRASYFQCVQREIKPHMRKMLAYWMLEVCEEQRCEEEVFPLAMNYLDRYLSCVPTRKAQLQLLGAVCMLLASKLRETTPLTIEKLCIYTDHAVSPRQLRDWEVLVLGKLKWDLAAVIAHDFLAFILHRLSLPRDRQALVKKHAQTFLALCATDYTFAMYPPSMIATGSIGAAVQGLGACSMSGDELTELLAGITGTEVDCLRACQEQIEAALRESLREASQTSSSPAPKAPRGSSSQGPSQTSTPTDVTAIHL
The procedure: as §1

A further experiment addresses T5, MAP4K2 (Homo sapiens, UniProt Q12851).
T5 construct: purchased Reaction Biology Europe GmbH (formerly ProQinase)
T5 sequence (Q12851 1-820): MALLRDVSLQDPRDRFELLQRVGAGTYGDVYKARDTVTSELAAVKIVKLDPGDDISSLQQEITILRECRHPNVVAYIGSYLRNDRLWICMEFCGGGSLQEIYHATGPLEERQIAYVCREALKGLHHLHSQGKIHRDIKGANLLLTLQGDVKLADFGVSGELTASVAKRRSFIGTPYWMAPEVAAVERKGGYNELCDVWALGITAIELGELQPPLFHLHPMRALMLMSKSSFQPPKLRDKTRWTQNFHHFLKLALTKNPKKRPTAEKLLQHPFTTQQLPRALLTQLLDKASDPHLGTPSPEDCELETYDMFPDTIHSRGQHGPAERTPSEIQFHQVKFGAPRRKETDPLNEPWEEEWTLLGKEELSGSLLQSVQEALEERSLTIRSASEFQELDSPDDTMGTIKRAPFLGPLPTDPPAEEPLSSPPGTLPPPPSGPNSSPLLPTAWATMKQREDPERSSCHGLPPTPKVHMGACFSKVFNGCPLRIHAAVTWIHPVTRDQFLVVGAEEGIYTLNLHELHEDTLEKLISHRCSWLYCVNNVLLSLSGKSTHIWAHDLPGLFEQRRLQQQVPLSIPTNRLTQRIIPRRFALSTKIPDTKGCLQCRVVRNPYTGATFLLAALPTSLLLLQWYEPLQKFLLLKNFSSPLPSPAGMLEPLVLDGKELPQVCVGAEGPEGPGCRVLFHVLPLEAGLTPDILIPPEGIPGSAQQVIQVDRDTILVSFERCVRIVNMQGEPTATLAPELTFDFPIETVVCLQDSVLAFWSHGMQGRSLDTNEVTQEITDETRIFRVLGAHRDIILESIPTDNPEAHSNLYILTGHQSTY
The protocol: as §1

In another experiment the target is T6, BMPR1A (Homo sapiens, UniProt P36894).
T6 construct: purchased Reaction Biology Europe GmbH (formerly ProQinase)
T6 sequence (P36894 24-532): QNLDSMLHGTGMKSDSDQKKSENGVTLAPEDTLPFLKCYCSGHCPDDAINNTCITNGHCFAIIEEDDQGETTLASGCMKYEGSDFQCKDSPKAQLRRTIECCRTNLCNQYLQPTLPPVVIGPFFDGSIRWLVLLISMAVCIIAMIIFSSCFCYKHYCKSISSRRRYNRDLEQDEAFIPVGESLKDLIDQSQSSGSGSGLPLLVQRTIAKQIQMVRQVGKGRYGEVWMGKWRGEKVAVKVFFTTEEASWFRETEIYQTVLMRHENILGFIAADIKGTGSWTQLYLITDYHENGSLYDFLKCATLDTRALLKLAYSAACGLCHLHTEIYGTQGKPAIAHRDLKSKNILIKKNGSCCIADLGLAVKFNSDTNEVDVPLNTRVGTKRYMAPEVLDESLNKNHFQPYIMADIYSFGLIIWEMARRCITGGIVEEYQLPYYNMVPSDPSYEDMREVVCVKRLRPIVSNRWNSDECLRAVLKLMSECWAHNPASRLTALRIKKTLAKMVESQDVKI
The protocol: as §1

In another experiment the target is T7, TYRO3 (Homo sapiens, UniProt Q06418).
T7 construct: purchased Reaction Biology Europe GmbH (formerly ProQinase)
T7 sequence (Q06418 41-890): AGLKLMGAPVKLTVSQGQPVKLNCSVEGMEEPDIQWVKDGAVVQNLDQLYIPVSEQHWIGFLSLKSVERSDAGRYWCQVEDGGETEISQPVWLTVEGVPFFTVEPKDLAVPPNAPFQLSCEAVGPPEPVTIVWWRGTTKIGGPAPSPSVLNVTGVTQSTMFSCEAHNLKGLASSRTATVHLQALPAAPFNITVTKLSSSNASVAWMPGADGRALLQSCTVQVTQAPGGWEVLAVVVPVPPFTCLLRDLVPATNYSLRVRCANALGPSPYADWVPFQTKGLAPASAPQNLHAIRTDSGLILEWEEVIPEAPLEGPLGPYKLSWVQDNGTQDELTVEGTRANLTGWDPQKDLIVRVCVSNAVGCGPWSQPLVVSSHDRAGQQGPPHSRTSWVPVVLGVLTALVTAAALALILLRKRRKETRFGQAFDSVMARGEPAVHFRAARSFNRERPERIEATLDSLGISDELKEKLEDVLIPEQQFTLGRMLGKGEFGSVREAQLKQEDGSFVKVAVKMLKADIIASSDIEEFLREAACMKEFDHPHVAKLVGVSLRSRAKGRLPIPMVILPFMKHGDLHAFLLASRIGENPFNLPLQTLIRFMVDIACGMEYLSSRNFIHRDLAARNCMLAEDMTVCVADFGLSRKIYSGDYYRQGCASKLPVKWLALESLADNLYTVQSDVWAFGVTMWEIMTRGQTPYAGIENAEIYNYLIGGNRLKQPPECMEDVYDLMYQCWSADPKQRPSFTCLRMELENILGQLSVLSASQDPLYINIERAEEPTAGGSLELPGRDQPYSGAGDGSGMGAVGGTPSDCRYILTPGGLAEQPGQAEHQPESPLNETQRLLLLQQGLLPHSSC
The procedure: as §1

The target of another experiment is T8, NEK6 (Homo sapiens, UniProt Q9HC98).
T8 construct: purchased Reaction Biology Europe GmbH (formerly ProQinase)
T8 sequence (Q9HC98 whole entry): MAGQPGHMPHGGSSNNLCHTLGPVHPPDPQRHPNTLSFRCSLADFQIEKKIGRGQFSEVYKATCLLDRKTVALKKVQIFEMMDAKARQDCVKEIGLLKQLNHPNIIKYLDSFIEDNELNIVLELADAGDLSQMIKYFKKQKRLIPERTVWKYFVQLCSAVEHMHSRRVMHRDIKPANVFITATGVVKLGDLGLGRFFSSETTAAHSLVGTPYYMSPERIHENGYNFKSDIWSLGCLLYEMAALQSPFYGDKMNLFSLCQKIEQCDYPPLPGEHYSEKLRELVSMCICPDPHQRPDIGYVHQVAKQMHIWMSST
The protocol:
as §1

T1 sequence (O60566 whole entry): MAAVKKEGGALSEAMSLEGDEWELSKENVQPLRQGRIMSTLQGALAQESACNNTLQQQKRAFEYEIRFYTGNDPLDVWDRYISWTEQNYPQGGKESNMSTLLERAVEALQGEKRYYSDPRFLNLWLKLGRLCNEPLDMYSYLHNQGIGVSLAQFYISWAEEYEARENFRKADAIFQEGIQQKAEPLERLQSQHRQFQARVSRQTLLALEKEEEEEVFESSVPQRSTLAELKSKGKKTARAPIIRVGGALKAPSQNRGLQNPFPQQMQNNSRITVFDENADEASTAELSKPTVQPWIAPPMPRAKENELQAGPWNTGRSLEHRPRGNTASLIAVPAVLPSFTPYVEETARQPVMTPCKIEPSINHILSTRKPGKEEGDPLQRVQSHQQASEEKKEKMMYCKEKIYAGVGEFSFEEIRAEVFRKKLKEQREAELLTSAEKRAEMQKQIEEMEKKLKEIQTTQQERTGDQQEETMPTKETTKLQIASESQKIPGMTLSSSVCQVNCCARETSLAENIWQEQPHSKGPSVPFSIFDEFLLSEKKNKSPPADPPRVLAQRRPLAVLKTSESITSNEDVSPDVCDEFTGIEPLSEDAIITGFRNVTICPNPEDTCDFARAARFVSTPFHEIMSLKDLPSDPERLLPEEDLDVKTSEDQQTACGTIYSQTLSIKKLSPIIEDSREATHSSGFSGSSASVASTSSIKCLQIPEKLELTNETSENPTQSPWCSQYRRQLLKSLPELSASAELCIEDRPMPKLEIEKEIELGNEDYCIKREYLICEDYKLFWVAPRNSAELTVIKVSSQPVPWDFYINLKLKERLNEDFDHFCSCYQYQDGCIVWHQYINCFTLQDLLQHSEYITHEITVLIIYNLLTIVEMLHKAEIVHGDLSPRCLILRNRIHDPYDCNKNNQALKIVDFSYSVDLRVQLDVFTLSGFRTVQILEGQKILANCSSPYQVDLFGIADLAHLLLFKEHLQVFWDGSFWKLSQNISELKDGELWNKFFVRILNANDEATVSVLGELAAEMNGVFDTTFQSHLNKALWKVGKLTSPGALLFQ

For `c1ccc(CNc2cc(-c3c[nH]c4ncccc34)ccn2)cc1` [meriolin 36], the residual kinase activity on BUB1B (0.3 µM) is given as 89 % of control; on BUB1B (3 µM) it was 73 % of control; on MKK7 (0.3 µM) it was 81 % of control; at MKK7 (3 µM), 48 % of control; at SGK2 (0.3 µM) it was 88 % of control; on SGK2 (3 µM), 32 % of control. Moreover, the residual kinase activity at CDK6/CycD3 (0.3 µM) is on record as 76 % of control; at CDK6/CycD3 (3 µM), 26 % of control; on MAP4K2 (0.3 µM), 3 % of control; at MAP4K2 (3 µM) it was 0 % of control; on BMPR1A (0.3 µM), 105 % of control; at BMPR1A (3 µM), 61 % of control. The residual kinase activity is 94 % of control on TYRO3 (0.3 µM), 64 % of control at TYRO3 (3 µM), 112 % of control on NEK6 (0.3 µM) and 108 % of control at NEK6 (3 µM).

Turning to `COc1ccnc2[nH]cc(-c3cc(N)nc(N)c3)c12` [meriolin 16], the residual kinase activity at BUB1B (0.03 µM) was 88 % of control; at BUB1B (0.3 µM), 81 % of control; at MKK7 (0.03 µM), 96 % of control; at MKK7 (0.3 µM), 88 % of control; on SGK2 (0.03 µM), 97 % of control; on SGK2 (0.3 µM) it was 74 % of control. In addition, the residual kinase activity at CDK6/CycD3 (0.03 µM) is reported as 88 % of control; at CDK6/CycD3 (0.3 µM), 98 % of control; at MAP4K2 (0.03 µM) it was 22 % of control; on MAP4K2 (0.3 µM), 4 % of control; at BMPR1A (0.03 µM), 94 % of control; at BMPR1A (0.3 µM), 94 % of control. The residual kinase activity on TYRO3 (0.03 µM) was 104 % of control; at TYRO3 (0.3 µM) it was 89 % of control; at NEK6 (0.03 µM), 107 % of control; on NEK6 (0.3 µM), 104 % of control.

The values are drawn from article PMC11167047 (Cell Death Discovery, 2024).
